Measured values: article PMC9019904, “AD Informer Set: Chemical tools to facilitate Alzheimer's disease drug discovery” (Alzheimer's & Dementia : Translational Research & Clinical …, 2022)

Assays:
[1] = tested on: BV2 (mouse microglia) cell line; assay: pHrodo-myelin phagocytosis/cell viability high content imaging assay: viability (cell count, nuclear area, nuclear intensity); conditions: 48 hours treatment
Description: (§1) All AD Informer Set compounds were tested in two immortalized microglial cell lines, murine (BV2), and human (HMC3), in a high‐content imaging assay in duplicate by the Chu lab. Experimental details and all data can be found as supporting information files.
(§2) The role of microglia in AD has been well documented and was thus chosen as a cell type in which to profile the AD Informer Set.[43], [44], [45] As an example, neuroinflammation, as detected by the presence of activated complement proteins, interleukins, cytokines, and chemokines in microglia and astrocytes, is increased early in AD and is considered pathogenic due to its chronic nature.[33], [34] Cytotoxic effects can be assessed by considering multiple parameters.
(§3) Microglial viability and phagocytosis studies: The pHrodo-myelin phagocytosis/cell viability assay, modified based on a published method, was run with immortalized BV2 (mouse microglia) and HMC3 (human microglia) cell lines in the Chu lab at IUSM. The 384-well plate high content analysis assay with BV2 and HMC3 microglial cell lines is used to quantify both phagocytosis and cell viability simultaneously. High content imaging is performed with the ArrayScan automatic imaging system and imaging analysis done with the software on the system. After allowing cells to adhere overnight, they are treated with compounds for total 48 hours including final 20 hours seeded with pHrodo-myelin (labeled phagocytosis ligand, purified […]
(§4) (approximately 22 hours after pHrodo-myelin addition). Three measurements are extracted from the assay: 1) phagocytosis signal by mean total phagocytosis spot intensity per cell, 2) total cell counts per well as the main measurement of cell viability, and 3) mean average nuclear intensity per cell as profiling of cell health since apoptotic cells showing nuclear intensity increase (early apoptosis) and decrease (later apoptosis), respectively. These measurements allow for evaluation of compound-induced phagocytosis (1) and cytotoxicity (2 and 3). Assays were carried out at a single concentration (10 μM). Idelalisib (10 μM) and cytochalasin-D (4 μM) were used as positive controls in the assay. All data, which was an average of 2 data points, was normalized to untreated wells and reported as % control, which is included in the Supporting Information both as a raw data file and summarized in the compound/gene-annotation file.

[2] = tested on: HMC3 (human microglia) cell line; assay: as above; conditions: 48 hours treatment
Description: as §1, §2, §3, §4

[3] = tested on: BV2 (mouse microglia) cell line; assay: pHrodo-myelin phagocytosis/cell viability high content imaging assay: phagocytosis signal; type: cell-based
Description: (§5) It is important to note that stressed cells, such as those that are dying, are prone to show an increase in phagocytosis. […] MerTK promotes phagocytosis and thus MerTK inhibition is proposed to lead to inhibition of phagocytosis.[47]
(§6) phagocytosis and cell viability simultaneously. High content imaging is performed with the
(§7) (approximately 22 hours after pHrodo-myelin addition). Three measurements are extracted
(§8) intensity increase (early apoptosis) and decrease (later apoptosis), respectively. These
and 3). […]

[4] = tested on: HMC3 (human microglia) cell line; assay: as above; type: cell-based
Description: as §5, §6, §7, §8
and 3). […]

[5] = BV2 cells, 10 uM compound, 48 hours treatment, pHrodo-myelin final 20 hours
[6] = HMC3 cells, 10 uM compound, 48 hours treatment, pHrodo-myelin final 20 hours
[7] = BV2, compound 10 uM, pHrodo-myelin
[8] = HMC3, compound 10 uM, pHrodo-myelin

SMILES	1. Cell count (% control) ([1]; BV2 cells, 10 uM compound)	2. Nuclear Area (% Control) ([1]; BV2 cells, 10 uM compound)	3. Nuclear DNA Intensity (% control) ([1]; BV2 cells, 10 uM compound)	1. Cell count (% control) ([2]; HMC3 cells, 10 uM compound)	2. Nuclear Area (% Control) ([2]; HMC3 cells, 10 uM compound)	3. Nuclear DNA Intensity (% control) ([2]; HMC3 cells, 10 uM compound)	4. Phagocytosis (% control) [3, 5]	4. Phagocytosis (% control) [4, 6]	1. Cell count (% control) ([1]; BV2, compound 10 uM)	2. Nuclear Area (% Control) ([1]; BV2, compound 10 uM)	3. Nuclear DNA Intensity (% control) ([1]; BV2, compound 10 uM)	1. Cell count (% control) ([2]; HMC3, compound 10 uM)	2. Nuclear Area (% Control) ([2]; HMC3, compound 10 uM)	3. Nuclear DNA Intensity (% control) ([2]; HMC3, compound 10 uM)	4. Phagocytosis (% control) [3, 7]	4. Phagocytosis (% control) [4, 8]
CCc1ccc(S(=O)(=O)c2ccccc2)cc1S(=O)(=O)NCCCN(C)C [UNC10302948A]	115.1 % control	106.0 % Control	108.0 % control	127.5 % control	97.8 % Control	101.2 % control	187.1 % control	143.6 % control								
c1cn2cc(-c3ccc4cn[nH]c4c3)nc(Nc3ccc(N4CCOCC4)cc3)c2n1 [UNC10302678A]	22.1 % control	102.9 % Control	164.6 % control	74.7 % control	98.9 % Control	212.8 % control	0.6 % control	43.6 % control								
CN(C)CCCN1c2ccccc2Sc2ccc(Cl)cc21.Cl [UNC10100309D]	82.7 % control	103.4 % Control	99.3 % control	119.8 % control	102.8 % Control	91.9 % control	128.7 % control	88.5 % control								
COCCOCCOC(=O)N[C@@H](CC(C)C)C(=O)N[C@@H](Cc1ccccc1)C(=O)C(=O)NC1CC1 [UNC10302677A]	132.7 % control	105.3 % Control	103.4 % control	142.6 % control	102.2 % Control	91.6 % control	132.9 % control	70.4 % control								
CCS(=O)(=O)N1CCN(c2ccc(Nc3ncc(C(N)=O)c(NC4CC4)n3)cc2)CC1 [UNC10245084A]									6.9 % control	115.7 % Control	50.0 % control	54.5 % control	136.2 % Control	128.1 % control	2.3 % control	110.4 % control
c1ccc(CNc2nc(NCc3ccccc3)c3ccccc3n2)cc1 [UNC10302879A]	27.3 % control	94.3 % Control	65.0 % control	28.2 % control	43.8 % Control	179.2 % control	0.00106 % control	0.0516 % control								
Cc1cc(C)nc(NS(=O)(=O)c2ccc(NC(=O)NC(=O)c3ccc(Cl)cc3Cl)cc2)n1 [UNC10303168A]									124.0 % control	99.5 % Control	104.3 % control	129.3 % control	101.5 % Control	94.7 % control	118.2 % control	88.1 % control
CCCC[C@@H](C=O)NC(=O)[C@H](CC(C)C)NC(=O)OCc1ccccc1 [UNC10302674A]	102.6 % control	106.4 % Control	106.3 % control	146.0 % control	103.5 % Control	93.8 % control	195.1 % control	69.0 % control								
CC/C(=C(\c1ccccc1)c1ccc(OCCN(C)C)cc1)c1ccccc1 [UNC10101258B]									72.9 % control	98.7 % Control	95.7 % control		95.6 % Control	91.8 % control	320.1 % control	72.6 % control
CN1C(N)=N[C@](C)(c2cc(NC(=O)c3ccc(F)cn3)ccc2F)CS1(=O)=O [UNC10303092A]	104.0 % control	108.1 % Control	102.5 % control	119.4 % control	99.5 % Control	97.7 % control	127.2 % control	104.7 % control								
CC(C)(O)c1coc(S(=O)(=O)[N-]C(=O)Nc2c3c(cc4c2CCC4)CCC3)c1.[Na+] [UNC10302861A]	111.0 % control	101.8 % Control	106.4 % control	119.4 % control	98.5 % Control	105.7 % control	115.8 % control	105.6 % control								
CS[C@@]1(C(=O)Nc2ccc3[nH]nc(-c4ccc(OC(C)C)nc4)c3c2)CCN(CC(=O)N2CC=C(c3ccc(-c4ncn(C)n4)cc3)CC2)C1 [UNC10302902A]	54.0 % control	110.5 % Control	112.2 % control	113.2 % control	96.5 % Control	97.1 % control	339.1 % control	45.1 % control								
CCCCc1nc(Cl)c(CO)n1Cc1ccc(-c2ccccc2-c2nn[nH]n2)cc1 [UNC10121212D]	142.4 % control	103.1 % Control	105.8 % control	117.8 % control	104.2 % Control	96.6 % control	120.9 % control	86.3 % control								
C=CC[N+]1(C2CC3C4CCC5CC(O)C(N6CCOCC6)CC5(C)C4CCC3(C)C2OC(C)=O)CCCC1.[Br-] (stereo not shown) [UNC10302696A]									144.5 % control	102.9 % Control	102.4 % control	145.5 % control	103.7 % Control	86.9 % control	148.6 % control	62.6 % control
CN(C)CCCn1c(N)c(-c2nc3ccccc3[nH]2)c2nc3ccccc3nc21 [UNC10302891A]	121.8 % control	105.7 % Control	98.0 % control	137.9 % control	99.6 % Control	97.0 % control	109.5 % control	44.4 % control								
CN1c2ccc([N+](=O)[O-])cc2N=C(c2ccc(C(=O)O)cc2)c2cc3c(cc21)C(C)(C)CCC3(C)C [UNC10303107A]	16.8 % control	151.2 % Control	64.7 % control	75.4 % control	99.6 % Control	105.3 % control	117.4 % control	76.2 % control								
